Data: patent US20100272696A1, “Human Bone-Forming Cells In The Treatment of Inflammatory Rheumatic Diseases” (BONE THERAPEUTICS S.A., priority 2007, published 2010)

Legend:
[1] = system: Carrageenan-Induced Ankle/Paw Inflammation; experiment: Model of Carrageenan-Induced Ankle/Paw Inflammation (2); format: in vivo, SWISS mice; conditions: DEX 1 mg/kg, OB 1*10^6, FIG. 4
Description: Inflammation was induced by injection of a solution containing 1% lambda carrageenan (CARRA; Sigma, Switzerland) in PBS into the hind paw of 8 weeks old SWISS mice; each animal receiving a single injection in each hind paw (Table 4). Carrageenan injected animals received immediately after injection or PBS only, or a solution of Dexamethasone (DEX; Sigma Switzerland) at a concentration of 1 mg/kg, or 1*10^6 human bone-forming cells (OB) (derived from bone marrow mesenchymal stromal cells as described in Example 1A).
Under isoflurane sedation, the circumference of ankles and paws was measured using a digital caliper before the injection at T0 and at T1, T4, T6 and T24; respectively before CARRA administration, and 1 h, 4 h, 6 h and 24 hours after the injection.

[2] = system: Carrageenan-Induced Ankle/Paw Inflammation; experiment: Model of Carrageenan-Induced Ankle/Paw Inflammation (1); format: in vivo, SWISS mice; conditions: DEX 1 mg/kg, OB 1*10^6, FIG. 3
Description: Sigma, Switzerland) in PBS into the hind paw of 8 weeks old SWISS mice; each animal receiving a single injection in each hind paw (Table 3). […] Sigma Switzerland) at a concentration of 1 mg/kg, or 1*10^6 human bone-forming cells (OB) (derived from bone marrow mesenchymal stromal cells as described in Example 1A) or a combination of DEX and OB. [table]

C[C@@H]1C[C@H]2[C@@H]3CCC4=CC(=O)C=C[C@]4(C)[C@@]3(F)[C@@H](O)C[C@]2(C)[C@@]1(O)C(=O)CO [Dexamethasone]
inhibition of inflammation (paw diameter) ([1]; 1 h after carrageenan): 100% | inhibition of inflammation (paw diameter) ([1]; 6 h after carrageenan): 70% | inhibition of inflammation (paw diameter) ([1]; 24 h after carrageenan): 38% | inhibition of inflammation (ankle diameter) ([2]; 1 h after carrageenan): 100% | inhibition of inflammation (ankle diameter) ([2]; 4 h after carrageenan): 100%
